Patent US20110124617A1, “Combination Therapy for BreastCancer Comprising an Antiestrogenic Agent” (priority 2008, published 2011)

What was measured:
rat uterus = conditions: cited from earlier work; for estrogenic stimulation on the rat uterus: compound alone
hot flashes = assay: alleviation of hot flashes in a postmenopausal breast cancer patient treated with tamoxifen citrate; assay type: in vivo, human; conditions: postmenopausal patient on tamoxifen citrate (20 mg tamoxifen free base)
Experimental: A postmenopausal patient is being treated in the adjuvant setting for breast cancer with the SERM tamoxifen citrate (dosage of 20 mg tamoxifen free base). They are experiencing hot flashes as a result of their treatment.

Compound | estrogenic stimulation on the rat uterus (rat uterus) | alleviation of hot flashes (hot flashes; 20 mg once daily) | alleviation of hot flashes (hot flashes; dosage adjusted to 50 mg) | antagonism of the estrogenic effect of estradiol on the uterus (rat uterus; with estradiol)
O=C(c1ccc(OCCN2CCCCC2)cc1)c1c(-c2ccc(O)cc2)sc2cc(O)ccc12 [raloxifene, reference compound] | did stimulate the uterus | – | – | –
CC/C(=C(\c1ccccc1)c1ccc(OCCN(C)C)cc1)c1ccccc1 [tamoxifen, reference compound] | did stimulate the uterus | – | – | –
CCNCCc1ccc(CN(CC)c2cc(OC)ccc2[C@@H]2CCc3cc(O)ccc3C2)cc1 [compound of formula I] | no estrogenic stimulation | partial alleviation of their symptoms | almost complete alleviation of their hot flushes | could antagonize the estrogenic effect of estradiol on the uterus and bring it back to control levels
